Measured values: the supplement of paper PMC10307832

Assays:
Experiment in all cases: relative viability (nuclei count vs DMSO), 5 days (fraction); higher = more cells survive
Crizotinib + AZD7762 = compound: C[C@@H](Oc1cc(-c2cnn(C3CCNCC3)c2)cnc1N)c1c(Cl)ccc(F)c1Cl [Crizotinib] + NC(=O)Nc1cc(-c2cccc(F)c2)sc1C(=O)N[C@H]1CCCNC1 [AZD7762] (partner 0.2 µM)
In short: (§1)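 Each reported value is a median over duplicate plates. It expresses relative viability: treated-well nuclei count divided by vehicle-well nuclei count. Lung cancer cell lines in 1536-well plates were dosed by pin tool a day after seeding, alone with one drug or with a fixed anchor-drug dose plus five library-drug doses (not always all listed) in √10 steps, and nuclei were counted after 5 days.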

Olaparib + Crizotinib = compound: O=C(c1cc(Cc2n[nH]c(=O)c3ccccc23)ccc1F)N1CCN(C(=O)C2CC2)CC1 [Olaparib] + C[C@@H](Oc1cc(-c2cnn(C3CCNCC3)c2)cnc1N)c1c(Cl)ccc(F)c1Cl [Crizotinib] (partner 1 µM)
In short: as §1

Olaparib + Linsitinib = compound: O=C(c1cc(Cc2n[nH]c(=O)c3ccccc23)ccc1F)N1CCN(C(=O)C2CC2)CC1 [Olaparib] + C[C@]1(O)C[C@@H](c2nc(-c3ccc4ccc(-c5ccccc5)nc4c3)c3c(N)nccn32)C1 [Linsitinib] (partner 1 µM)
In short: as §1

Carfilzomib + Crizotinib = compound: CC(C)C[C@H](NC(=O)[C@H](CCc1ccccc1)NC(=O)CN1CCOCC1)C(=O)N[C@@H](Cc1ccccc1)C(=O)N[C@@H](CC(C)C)C(=O)[C@@]1(C)CO1 [Carfilzomib] + C[C@@H](Oc1cc(-c2cnn(C3CCNCC3)c2)cnc1N)c1c(Cl)ccc(F)c1Cl [Crizotinib] (partner 1 µM)
In short: as §1

Row | Cell Line | relative viability (Crizotinib + AZD7762; first compound 0.01 µM) | relative viability (Crizotinib + AZD7762; first compound 0.03162 µM) | relative viability (Crizotinib + AZD7762; first compound 0.1 µM) | relative viability (Crizotinib + AZD7762; first compound 0.3162 µM) | relative viability (Crizotinib + AZD7762; first compound 1 µM) | relative viability (Olaparib + Crizotinib; first compound 0.08 µM) | relative viability (Olaparib + Crizotinib; first compound 0.253 µM) | relative viability (Olaparib + Crizotinib; first compound 2.53 µM) | relative viability (Olaparib + Crizotinib; first compound 8 µM) | relative viability (Olaparib + Linsitinib; first compound 0.08 µM) | relative viability (Olaparib + Linsitinib; first compound 0.253 µM) | relative viability (Olaparib + Linsitinib; first compound 2.53 µM) | relative viability (Olaparib + Linsitinib; first compound 8 µM) | relative viability (Carfilzomib + Crizotinib; first compound 0.001 µM) | relative viability (Carfilzomib + Crizotinib; first compound 0.003162 µM) | relative viability (Carfilzomib + Crizotinib; first compound 0.01 µM) | relative viability (Carfilzomib + Crizotinib; first compound 0.03162 µM) | relative viability (Carfilzomib + Crizotinib; first compound 0.1 µM)
1 | 201T | 0.6 | 0.628 | 0.558 | 0.575 | 0.716 | 1.01 | 1 | 1.01 | 0.973 | 1.04 | 1.01 | 1.04 | 1.01 | 1.02 | 1.1 | 1.04 | 1.06 | 0.91
2 | A549 | – | – | – | – | – | 0.884 | 0.654 | 0.777 | 0.358 | 0.761 | 0.567 | 0.588 | 0.436 | 0.802 | 0.776 | 0.743 | 0.182 | 0.0494
3 | A-427 | 0.709 | 0.766 | 0.773 | – | 0.684 | 0.958 | 0.882 | 0.705 | 0.71 | 1.12 | 1.03 | 1.03 | 0.851 | 0.837 | 0.996 | 0.862 | 0.212 | 0.122
4 | ABC-1 | 0.902 | 0.848 | 0.695 | 0.671 | 1.34 | 1.57 | 1.04 | 1.19 | 0.961 | 1.1 | 0.918 | 0.644 | 0.556 | 1.15 | 0.805 | 0.385 | 0.177 | 0.172
5 | BEN | 0.726 | 0.645 | 0.671 | 0.586 | 0.679 | 0.856 | 0.82 | 1 | 0.931 | 0.89 | 0.749 | 1.05 | 0.982 | 0.898 | 1.18 | 0.923 | 0.757 | 0.311
6 | CAL-12T | 0.527 | 0.679 | 0.624 | 0.635 | 0.694 | 0.917 | 0.575 | 0.95 | 0.572 | 1.05 | 0.751 | 0.825 | 0.666 | – | 0.814 | 0.72 | 0.18 | 0.0912
7 | COR-L23 | – | – | – | – | – | 0.852 | 0.58 | 0.515 | 0.274 | 1.09 | 0.852 | 0.716 | 0.432 | 0.71 | 0.828 | 0.731 | 0.0647 | 0.0659
8 | COR-L 105 | – | – | – | – | – | 0.866 | 0.668 | 0.621 | 0.522 | 1.03 | 0.804 | 0.706 | 0.591 | 0.84 | 0.743 | 0.608 | 0.262 | 0.17
9 | Calu-6 | – | – | – | – | – | 1.08 | 0.662 | 0.74 | 0.573 | 1.06 | 0.866 | 0.824 | 0.717 | 0.747 | 0.834 | 0.811 | 0.334 | 0.0815
10 | ChaGo-K-1 | 0.83 | 0.841 | 0.839 | 0.711 | 0.905 | 1.26 | 1.06 | 1.31 | 0.862 | – | – | – | – | – | 1.2 | 1.18 | 0.634 | 0.303
